In this test the target is Tryptophan--tRNA ligase (Mycobacterium tuberculosis (strain ATCC 25618 / H37Rv), UniProt P9WFT3). The experiment in a line: Biochemical assay for Mt-TrpRS. The test is classed as functional.
Chain of Tryptophan--tRNA ligase (P9WFT3 whole entry): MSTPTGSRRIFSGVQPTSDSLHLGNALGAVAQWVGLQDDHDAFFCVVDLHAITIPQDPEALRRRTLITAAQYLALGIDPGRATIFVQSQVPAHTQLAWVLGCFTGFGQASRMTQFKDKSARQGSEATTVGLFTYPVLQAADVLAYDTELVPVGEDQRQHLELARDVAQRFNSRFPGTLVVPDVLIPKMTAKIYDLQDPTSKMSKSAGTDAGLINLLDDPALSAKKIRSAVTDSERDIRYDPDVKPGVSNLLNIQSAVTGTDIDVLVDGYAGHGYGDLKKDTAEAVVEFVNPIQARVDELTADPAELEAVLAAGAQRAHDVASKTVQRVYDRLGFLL

The term IC50 denotes the concentration needed to halve the response being measured. A high value points to weaker potency. `N#Cc1cnc(N2CCC3(CC2)OCCO3)nc1N` gave an IC50 above 195 µM.

As to `CC(=O)N1N=C(c2ccccc2)OC1C(=O)NCCc1cccc(F)c1` (configuration not stated), the IC50 was above 195 µM. Next, `CC(C)c1ccc(-n2ncc(C(=O)NCC3COC(C)(C)O3)c2N)cc1` (configuration not stated): above 195 µM. Next, `CC(=O)N1N=C(c2cccs2)OC1C(=O)NCCc1cccc(Cl)c1` (configuration not stated): above 195 µM; `CCOC(=O)CNC(=O)C1OC(c2ccccc2)=NN1C(C)=O` (configuration not stated): above 195 µM. Compound `Cc1cc(CN(C)CCC(O)c2ccccc2)no1` (configuration not stated) showed an IC50 above 195 µM. To `Nc1c(N2CCCC2)ncnc1N1CCOCC1` belongs above 195 µM. For the compound `CC(=O)c1cc2ncc(C(=O)NC3CC3)cc2[nH]1`, the IC50 was above 195 µM.

The compound `CNC(=O)c1cnc2c(C)csc2c1` gave an IC50 above 195 µM. Compound `COc1c(C(=O)N2CCNC(=O)C2)cnc2c1c(C)nn2C` showed an IC50 above 195 µM. Next, `Cn1c(C(=O)NCC2(N)CCCC2)cc2ccccc21`: above 195 µM; `CC(C)(Oc1ccc(C(N)=O)cc1)C(=O)N(CCC#N)CC1CCCO1` (configuration not stated): above 195 µM; `CC(C)(C)C(=O)CN1Cc2ccccc2NCCC1=O`: above 195 µM. Next, `COc1ccc2c(c1)CN(Cc1ccco1)C(=O)CCN2`: above 195 µM; `CCN1Cc2cc(F)ccc2N(CC(O)C(F)(F)F)CCC1=O` (configuration not stated): above 195 µM; `CC(C)CC(=O)N1CC(=O)N(Cc2ccco2)CC(O)C1` (configuration not stated): above 195 µM. To `CCCC1CN(CCOc2ccccc2)C(=O)c2cccnc2O1` (configuration not stated) belongs above 195 µM. In the case of `CCCC1CN(CC(C)C)C(=O)c2cccnc2O1` (configuration not stated), the IC50 was above 195 µM. Next, `CC(C)CN1C[C@H](COCc2ccccc2)Oc2ncccc2C1=O`: above 195 µM. Next, `O=C(c1ccco1)N1C(CO)[C@]2(O)CC[C@H]1CC2` (some centres not stated): above 195 µM; `O=S(=O)(c1ccccc1)N1C(CN2CCOCC2)[C@]2(O)CC[C@H]1CC2` (some centres not stated): above 195 µM. To `Cn1cccc1CNC(=O)CCCc1nnc2ccccn12` belongs above 195 µM; to `N#Cc1cn[nH]c1NCc1cc(Br)ccc1O`, 31.4 µM. Turning to `NC(=O)CN1CCC(c2noc3cc(F)ccc23)CC1`, the IC50 is above 195 µM. To `COc1cccc(F)c1CN1CCC(c2nc(C)cc(C)n2)C1` (configuration not stated) belongs above 195 µM; to `Cc1sc2c(C3CCCN(C)C3)nc(C)n2c1C` (configuration not stated), above 195 µM. Compound `COc1cccc(CN2CC[C@H](NC(C)=O)[C@@H](O)CC2)c1F` had an IC50 above 195 µM. To `COc1cc(CN2CC[C@H](NC(C)=O)[C@@H](O)CC2)ccc1F` belongs above 195 µM; to `COc1ccc(CN2CC[C@H](NC(C)=O)[C@@H](O)CC2)c(F)c1`, above 195 µM. Take `CC(=O)N1CCCC1c1cccc(Cc2ccccc2Cl)n1` (configuration not stated): the 50% inhibitory concentration (IC50) was above 195 µM. Consider `Cc1nc(CCC(=O)NCC(N)=O)cc(C2CCNCC2)n1`, for which the 50% inhibitory concentration (IC50) was above 195 µM.

`NC(=O)C1(CCCc2ccccn2)CCCN(CCO)C1` (configuration not stated) gave a concentration for half-maximal inhibition (IC50) above 195 µM.

On to `CC1(C(=O)N2CCOCC2)CN(Cc2ncc[nH]2)CCO1` (configuration not stated), for which the IC50 is above 195 µM. Next, `CC(=O)N1CCCC1c1cccc(Oc2ccccc2F)n1` (configuration not stated): above 195 µM. Next, `CN(Cc1ccc(F)cc1)CC1(O)CCN(C(=O)c2ccncc2)C1` (configuration not stated): above 195 µM; `CC(=O)Nc1nc(C2CCN(C(=O)c3cncs3)CC2)cs1`: above 195 µM. To `CN1CCC(c2cccc(Cc3ccccc3)n2)CC1` belongs above 195 µM; to `CNC(=O)CCc1cc(C)nc(C2CCCCN2)n1` (configuration not stated), above 195 µM. In turn, `NC(=O)C1(CCCc2ccccn2)CCCN(Cc2ccncc2)C1` (configuration not stated) had a half-maximal inhibitory concentration (IC50) above 195 µM.

With `NC(=O)C1(CCCc2ccccn2)CCCN(Cc2ncc[nH]2)C1` (configuration not stated), the IC50 was above 195 µM.

The compound `CN1CC(c2cc(O)nc(NCc3ccc(Cl)cc3)n2)CC1=O` (configuration not stated) had an IC50 above 195 µM. Compound `Cc1ccc(CNc2nc(O)cc(C3CC(=O)N(C)C3)n2)cc1` (configuration not stated) showed an IC50 above 195 µM. Next, `Cc1cccnc1C(=O)N1CCC(Cc2cnc3[nH]ccc3c2)CC1`: above 195 µM; `Cn1nc(C2CN(C(=O)c3ccncc3)C2)c2nccnc21`: above 195 µM. Next, `O=C(N[C@@H]1CC[C@@H](n2ccnc2)[C@@H]1O)c1cc2c(s1)CCC2`: above 195 µM; `Cc1ccnc(C2CCN(C(=O)c3cnn(C)c3)C2)n1` (configuration not stated): above 195 µM. To `CCCn1cc(CN2CCCC2c2nccc(CN(C)C)n2)cn1` (configuration not stated) belongs above 195 µM; to `CN(CCc1ccccn1)C(=O)Nc1cc(C(F)(F)F)c[nH]c1=O`, above 195 µM; to `NC(=O)Nc1cc(F)ccc1SCC(F)F`, above 195 µM. Consider `Cc1cnn(-c2ccc(S(N)(=O)=O)cc2F)c1`, for which the IC50 was above 195 µM. To `Cc1ccc2c(c1C)OCC2NCc1ccc(C#N)cc1` (configuration not stated) belongs above 195 µM; to `Cc1cccc(NCc2nc(C)ccc2O)c1`, 81.8 µM; to `CS(=O)(=O)NC1CCN(C(=O)NCC2CCCO2)CC1` (configuration not stated), above 195 µM. Consider `CC(=O)NC1CCCN(C(=O)CCc2cccnc2)C1` (configuration not stated), for which the IC50 is above 195 µM.

The compound `Cc1ccc(S(=O)(=O)NCc2[nH]ncc2Br)cc1F` had an IC50 above 195 µM. To `CCOc1ccc(N(C)Cc2nnc(C)o2)cc1` belongs above 195 µM; to `Cc1ccc(CNC(=O)c2ccc(CNS(C)(=O)=O)o2)cc1F`, above 195 µM; to `CCOCC(O)CNc1cncc(Br)c1` (configuration not stated), above 195 µM. Next, `CS(=O)(=O)NC1CCN(C(=O)CCC2CCCO2)CC1` (configuration not stated): above 195 µM. Next, `COCCN1CC(C(=O)N(C)Cc2ccc(Cl)s2)CC1=O` (configuration not stated): above 195 µM; `O=C(NS(=O)(=O)c1cccnc1)C1CC(c2ccccc2)=NO1` (configuration not stated): above 195 µM; `Cc1ccn(-c2ccc(N3CCCN(Cc4ccccc4)CC3)nn2)n1`: above 195 µM.

With `O=C(C1CCOC1)N1C[C@@H]2CCN(C(=O)c3cscn3)[C@@H]2C1` (some centres not stated), the IC50 is above 195 µM. To `CCS(=O)(=O)N1CCc2c(COCc3ccncc3)cncc2C1` belongs above 195 µM; to `CC(C)n1c2ccccc2c2c1cc(C(=O)N(C)C)n2S(C)(=O)=O`, above 195 µM. Consider `O=C(c1ccccc1)N1CCO[C@@H]2CN(Cc3ccc[nH]3)C[C@@H]2C1`, for which the IC50 is above 195 µM. Next, `CC(=O)N1CCc2nc(-c3ccc(F)cc3)nc(NC(C)C)c2CC1`: above 195 µM; `CCCS(=O)(=O)N1C[C@@H](c2ccccc2)[C@@]2(CCNC2=O)C1`: above 195 µM. To `CCN1CCC2(CC1)CC(CC(=O)N(C)C)c1ccc(F)cc12` (configuration not stated) belongs above 195 µM; to `CCOCc1cnc2n1CCN(C(=O)c1ccoc1C)C2C` (configuration not stated), above 195 µM; to `COCC(=O)N1CCO[C@]2(CCC[C@H]2COC)C1`, above 195 µM. Next, `CN1CCN(Cc2cn3c(n2)CN(Cc2ccncc2)CC3)CC1`: above 195 µM; `COCCn1c2c(ccc1=O)CC(NCc1cnn(C)c1)CC2` (configuration not stated): above 195 µM; `CCC(=O)N1CCc2onc(CNS(C)(=O)=O)c2C1`: above 195 µM.

`CCn1c2c(ccc1=O)CC(NCc1cnn(C)c1)CC2` (configuration not stated) gave an IC50 above 195 µM. To `CCOCc1cnc2n1CCN(C(=O)c1ccccc1)C2C` (configuration not stated) belongs above 195 µM. Next, `CCOCC1c2c(ncn2C)CCN1C(=O)c1cscn1` (configuration not stated): above 195 µM; `c1ccc(CO[C@@H]2CN(Cc3ccoc3)[C@@H]3COC[C@@H]32)nc1`: above 195 µM; `CCO[C@H]1CC[C@H]2[C@H]1OCCN2C(=O)COc1ccccc1`: above 195 µM. To `COCCC(=O)N1CCC2(COCc3cnc(-c4cccnc4)nc32)C1` (configuration not stated) belongs above 195 µM; to `c1cn(-c2cnc(C3CCCNC3)cn2)cn1` (configuration not stated), above 195 µM; to `Fc1ccc(Cc2cnc(C3CCCN3)cn2)cc1` (configuration not stated), above 195 µM. For `CC(=O)N1CCN(c2cc(CCN)nc(C3CC3)n2)CC1`, the half-maximal inhibitory concentration (IC50) is above 195 µM. To `O=C(NCc1cncc2c1CCN(CC1CCOC1)C2)c1ccco1` (configuration not stated) belongs above 195 µM; to `CC(C)N(C)Cc1cncc2c1CCN(Cc1ccoc1)C2`, above 195 µM. To `CN(C)Cc1cncc2c1CCN(Cc1ccoc1)C2` belongs above 195 µM. To `CN(Cc1cccnc1)Cc1cncc2c1CCN(c1ccccn1)C2` belongs above 195 µM. `CN(C)CCN1C[C@@H]2CN(c3ccccc3)C[C@@H]2C1=O` showed an IC50 above 195 µM.

As to `CC(C)N1CCO[C@@H]2CN(C(=O)NCc3ccccc3)CC[C@@H]2C1`, the IC50 is above 195 µM. Compound `CN1CCO[C@@H]2CN(C(=O)NCc3ccccc3)CC[C@@H]2C1` gave an IC50 above 195 µM. Next, `CCn1ncc2c1C(COC)N(C(=O)c1cscn1)CC2` (configuration not stated): above 195 µM; `CN1CCCN(C(=O)c2ccnn2-c2ccc3ccccn23)CC1`: above 195 µM.

Take `O=C(c1ccco1)N1CCC2(CCCN(c3ncccn3)C2)C1` (configuration not stated): the IC50 was above 195 µM. Next, `O=C(COC[C@]12COC[C@H]1CN(C1CCC1)C2)N1CCCC1`: above 195 µM.

Consider `COCCN1CCC12CCN(C(=O)c1ccc(C)nc1)C2` (configuration not stated), for which the IC50 was above 195 µM. To `CS(=O)(=O)CC(=O)N1C[C@H]2CCC[C@@]2(COc2ccccn2)C1` belongs above 195 µM; to `CCOC1COC2(CCN(CC3CC3)CC2)C1` (configuration not stated), above 195 µM. Next, `CCO[C@H]1CN(CC2CCOCC2)[C@@H]2CCCO[C@H]12`: above 195 µM.

With `CS(=O)(=O)N1CCC2(CC1)CC(NCc1ccco1)c1ccccc12` (configuration not stated), the IC50 was above 195 µM. As for `O=C(c1ccc(F)cc1)N1C[C@@H]2COC[C@]2(COc2cccnc2)C1`, the IC50 is above 195 µM.

With `Cn1cccc1C(=O)N1CC2(CCN(C(=O)c3cccnc3)C2)C1`, the IC50 was above 195 µM.

The compound `O=C([C@@H]1C[C@@H]2CCN(Cc3ccoc3)C[C@H]2O1)N1CCCC1` showed an IC50 above 195 µM.

Compound `O=C(NC1CC1)[C@@H]1C[C@@H]2CCN(Cc3ccoc3)C[C@@H]2O1` showed a 50% inhibitory concentration (IC50) above 195 µM. Compound `CN(C)CCO[C@H]1CN(CC2CC2)[C@@H]2CCCO[C@H]12` showed an IC50 above 195 µM. Next, `CS(=O)(=O)NCc1cn2c(n1)CN(Cc1cccnc1)CC2`: above 195 µM; `O[C@@]1(c2ccccn2)CC[C@H]2CN(Cc3ccccn3)C[C@H]21`: above 195 µM; `CC(C)OCc1nn(C)c2c1CN(Cc1cccs1)CC2`: above 195 µM.

For the origin of these results see ChEMBL document CHEMBL3988442, “University of Dundee, Small-Polar-MMV Screening Library” (2021).
